According to US6541463B1, “Inhibitors of type 5 and type 3 17β-hydroxysteroid dehydrogenase and methods for their use” (Endorecherche, Inc., priority 1998, dated 2003):
Several values for one entry are separate records, joined by “and”; a condition that tells them apart may be missing. Equal values may be shown once.

target: T1, human type 5 17β-hydroxysteroid dehydrogenase (Homo sapiens, UniProt P42330); assay: Inhibition of human type 5 17β-HSD activity in transfected 293 cells; format: cell-based; details: Inhibition Type V 17β-HSD IC50, Table 4′
T1 construct: screen again a human placental λgt11 cDNA to get the full length cDNA clone; expressed in transfected cells; host or cells: human embryonal kidney 293 cells (pCMV / pCMV-neo vector)
T1 sequence (P42330 1-323): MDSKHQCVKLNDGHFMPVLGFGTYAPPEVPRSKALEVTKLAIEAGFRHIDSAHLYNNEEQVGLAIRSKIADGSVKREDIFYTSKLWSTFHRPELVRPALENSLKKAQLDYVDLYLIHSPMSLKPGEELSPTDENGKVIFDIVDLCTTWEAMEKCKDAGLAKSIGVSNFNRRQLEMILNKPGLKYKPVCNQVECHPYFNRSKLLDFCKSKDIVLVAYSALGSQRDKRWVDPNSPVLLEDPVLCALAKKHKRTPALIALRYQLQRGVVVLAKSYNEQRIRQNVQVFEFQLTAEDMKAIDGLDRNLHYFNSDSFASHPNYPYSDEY
How it was run: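 Human type 5 17β-HSD cDNA in a CMV-promoter vector, transfected by calcium phosphate (1 to 10 μg plasmid per 10^6 cells) into 293 cells grown in DMEM with 10% FBS at 37 °C.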

Going from COCCOc1cc2c(cc1C#N)C1CC[C@@]3(C)C(CC[C@@]34CCC(C)(C)C(=O)O4)C1CC2 (stereo partly drawn) [EM-1396] to CC1(C)CC[C@@]2(CCC3C4CCc5cc(C(N)=O)ccc5C4CCC32C)OC1=O (stereo partly drawn) [EM-1404], the IC50 falls from 13 nM to 3.2 ± 1.5 nM (4.1-fold).

same assay, conditions: Table 4′; 3 · 10^−6

Going from CC1(C)CCC2(CCC3C4CCc5cc(C(=O)OCc6ccccc6)ccc5C4CCC32C)OC1=O (stereo not drawn) [EM-1398] to CC1(C)CC[C@@]2(CC[C@H]3[C@@H]4CCc5c(cc(Br)c(O)c5Br)[C@H]4CC[C@@]32C)OC1=O [EM-1382-CS], the “Inhibition Type V 17β-HSD % Inh. at 3 · 10^−6” value falls from 89% to 86%.

For COCCOc1cc2c(cc1C(F)(F)F)[C@H]1CC[C@@]3(C)[C@@H](CC[C@@]34CCC(C)(C)C(=O)O4)[C@@H]1CC2 [EM-1438, 3-(2′-Methoxyethoxy)-2-trifluoromethyl-1,3,5(10)-estratrien-17(R)-spiro-2′-(5′,5′-dimethyl-6′-oxo)tetrahydropyran], the “Inhibition Type V 17β-HSD % Inh. at 3 · 10^−6” value was 95.2%.

same assay, conditions: Table 4′; 3 · 10^−7

Going from CC1(C)CCC2(CCC3C4CCc5cc(C(=O)OCc6ccccc6)ccc5C4CCC32C)OC1=O (stereo not drawn) [EM-1398] to CC1(C)CC[C@@]2(CC[C@H]3[C@@H]4CCc5c(cc(Br)c(O)c5Br)[C@H]4CC[C@@]32C)OC1=O [EM-1382-CS], the “Inhibition Type V 17β-HSD % Inh. at 3 · 10^−7” value rises from 70% to 74%.

In the case of COCCOc1cc2c(cc1C(F)(F)F)[C@H]1CC[C@@]3(C)[C@@H](CC[C@@]34CCC(C)(C)C(=O)O4)[C@@H]1CC2 [EM-1438, 3-(2′-Methoxyethoxy)-2-trifluoromethyl-1,3,5(10)-estratrien-17(R)-spiro-2′-(5′,5′-dimethyl-6′-oxo)tetrahydropyran], the “Inhibition Type V 17β-HSD % Inh. at 3 · 10^−7” value is reported as 90.6%.

same assay, conditions: Table 4′; read-out: Inhibition Type V 17β-HSD IC50

Compared with CC1CC(=O)OC2(CCC3C4CCc5cc(O)ccc5C4CCC32C)C1 [PB-132-142, 3-Hydroxy-1,3,5(10)-estratrien-17(R)-spiro-2′-(4′-methyl-6′-oxo)tetrahydropyran], C=CCC1CCC2(CCC3C4CCc5cc(O)ccc5C4CCC32C)OC1=O [PB-132-152, 3-Hydroxy-1,3,5(10)-estratrien-17(R)-2′-(5′-allyl-6′-oxo)tetrahydropyran] is 5.6-fold higher in IC50: 19 ± 1.5 nM for the first, 107 ± 9 nM for the second.

First: C[C@]12CCC3c4cc([N+](=O)[O-])c(O)cc4CCC3C1CC[C@@]21CCCC(=O)O1 (stereo partly drawn) [EM-1124, 2-Nitro-1,3,5(10)-estraetriene-3-ol-17(R)-spiro-2′-(6′-oxo)tetrahydropyran]
Second: CC1CCC2(CCC3C4CCc5cc(O)c([N+](=O)[O-])cc5C4CCC32C)OC1=O [EM-1126, 2-Nitro-1,3,5(10)-estratrien-3-ol-17(R)-spiro-2′-(5′-methyl-6′-oxo)tetrahydropyran]
The IC50 of the first is 2-fold lower: 3 ± 0.2 nM for the first, 6 ± 1 nM for the second.

Going from COc1ccc2c(c1)CCC1C2CCC2(C)C1CCC21CCC(C)(C)C(=O)O1 (stereo not drawn) [EM-1370] to COCCOc1ccc2c(c1)CCC1C2CCC2(C)C1CCC21CCC(C)(C)C(=O)O1 [EM-1368-CS, 3-Methoxyethoxy-1,3,5(10)-estratrien-17(R)-spiro-2′-(5′,5′-dimethyl-6′-oxo)-tetrahydropyran], the IC50 falls from 43 nM to 21 nM (2-fold). The second is the more potent here.

Compared with CC1(C)CC[C@@]2(CCC3C4CCc5cc6oncc6cc5C4CC[C@@]32C)OC1=O (stereo partly drawn) [EM-1407-CS, 1,3,5(10)-estratrien-(2,3-oximino)-17(R)-spiro-2′-(5′,5′-dimethyl-6′-oxo)tetrahydropyran], COc1cc2c(cc1C)C1CCC3(C)C(CCC34CCC(C)(C)C(=O)O4)C1CC2 (stereo not drawn) [EM-1412-CS] is 4.5-fold higher in IC50: 12 ± 3 nM for the first, 54 nM for the second. The first is the more potent here.

COCCOc1cc2c(cc1C(=O)OC)C1CC[C@@]3(C)C(CC[C@@]34CCC(C)(C)C(=O)O4)C1CC2 (stereo partly drawn) [EM-1402-CS, 2-Carbomethoxy-3-(2″-methoxyethyloxy)-1,3,5(10)-estratrien 17(R)-spiro-2′-(5′,5′-dimethyl-6′-oxo)tetrahydropyran] and COCCOc1cc2c(cc1C(N)=O)C1CC[C@@]3(C)C(CC[C@@]34CCC(C)(C)C(=O)O4)C1CC2 (stereo partly drawn) [EM-1424, 2-Carbamoyl-3-(2″-methoxyethyloxy)-1,3,5(10)-estratrien 17(R)-spiro-2′-(5′,5′-dimethyl-6′-oxo)tetrahydropyran] are within 1.5-fold of each other in IC50: 12 nM for the first, 9.5 nM for the second.

First: CC1(C)CCC2(CCC3C4CCc5cc(O)c(C(N)=O)cc5C4CCC32C)OC1=O (stereo not drawn) [EM-01660]
Second: CC1(C)CCC2(CCC3C4CCc5cc(O)c([N+](=O)[O-])cc5C4CCC32C)OC1=O (stereo not drawn) [EM-1125-CS]
The IC50 of the first is 2.8-fold higher: 5.6 ± 0.4 nM for the first, 2 nM for the second.

Going from CC1(C)CCC2(CCC3C4CCc5cc(O)c(C#N)cc5C4CCC32C)OC1=O (stereo not drawn) [EM-01645] to CC1(C)CCC2(CCC3C4CCc5cc(OCCN6CCCCC6)ccc5C4CCC32C)OC1=O [EM-1390-CS, 3-(N-piperidyl-ethyl)-1,3,5(10)-estratrien-17(R)-spiro-2′-(5′,5′-dimethyl-6′-oxo)-tetrahydropyran], the IC50 rises from 4.5 ± 0.3 nM to 48 nM (11-fold). The first is the more potent here.

For CC1(C)CC[C@@]2(CCC3C4CCc5cc(F)ccc5C4CC[C@@]32C)OC1=O (stereo partly drawn) [EM-1157-CS], the IC50 was 4 nM and 10 nM.
For COCCOc1cc2c(cc1Cl)C1CCC3(C)C(CCC34CCC(C)(C)C(=O)O4)C1CC2 (stereo not drawn) [EM-1371-CS], the IC50 was 19 nM and 20 nM.
For CC1(C)CCC2(CCC3C4CCc5ccccc5C4CCC32C)OC1=O (stereo not drawn) [CS-224], the IC50 was 2.9 nM and 10.7 nM.

same assay, conditions: read-out: Inhibition Type V 17B-HSD IC50

Going from CC12C=CC(=O)C=C1C=CC1C2CCC2(C)C(=O)C3(CCCCC3)CC12 (stereo not drawn) [CS-204] to CC(C)C[C@@H]1CC2C3C=CC4=CC(=O)CC[C@]4(C)C3CC[C@]2(C)C1=O (stereo partly drawn) [EM-1273-CS], the IC50 falls from 94 nM to 9 nM (10-fold). The second is the more potent here.

CCCC(=O)O[C@]1(C)C(=O)CCC2C3C=C(C)C4=CC(=O)CC[C@]4(C)C3CC[C@@]21C (stereo partly drawn) [EM-1078] gave an IC50 of 3.8 ± 0.6 nM.

same assay, conditions: read-out: Inhibition Type V 17β-HSD IC50

First: COc1ccc(CC(=O)O[C@]2(C(C)=O)CCC3C4C=C(C)C5=CC(=O)C=C[C@]5(C)C4CC[C@@]32C)cc1 (stereo partly drawn) [EM-1291]
Second: CCC(=O)O[C@]1(C(C)=O)CCC2C3C=C(C)C4=CC(=O)C[C@H](C)[C@]4(C)C3CC[C@@]21C (stereo partly drawn) [CS-243]
The IC50 of the first is 2-fold higher: 7 ± 1 nM for the first, 3.5 ± 0.1 nM for the second. The second is the more potent here.
